Measurements as given in patent publication US6492381B1, “Tricyclic carbamate compounds useful for inhibition of G-protein function and for treatment of proliferative diseases” (Schering Corp., priority 1993, dated 2002).

Columns and labels:
[1] = tested on: Normal human HEPM fibroblasts; assay: Cell Mat assay: inhibition of normal cell growth; assay type: cell-based; details: Homo sapiens, Fibroblast, mIC50, normal cell monolayer
Experimental: (§1) Normal human HEPM fibroblasts were planted in 3.5 cm dishes at a density of 5×10^4 cells/dish in 2 ml growth medium, and incubated for 3-5 d to achieve confluence. Medium was aspirated from each dish and the indicator tumor cells, T24-BAG4 human bladder carcinoma cells expressing an activated H-ras gene, were planted on top of the fibroblast monolayer at a density of 2×10^3cells/dish in 2 ml growth medium, and allowed to attach overnight. Compound-induced colony inhibition was assayed by addition of serial dilutions of compound directly to the growth medium 24 h after tumor cell planting, and incubating cells for an additional 14 d to allow colony formation. Assays were terminated by rinsing monolayers twice with phosphate-buffered saline (PBS), fixing the monolayers with a 1% glutaraldehyde solution in PBS, then visualizing tumor cells by staining with X-Gal (Price, J., et al., Lineage analysis in the vertebrate nervous system by retrovirus-mediated gene transfer, Proc. Natl. Acad. Sci.84, 156-160(1987)). […] Both IC50 values were obtained by determining the density of tumor cells and mat cells by visual inspection and enumeration of cells per colony and the number of colonies under the microscope. The therapeutic index of the compound was quantitatively expressed as the ratio of mIC50/tIC50, with values greater than one indicative of tumor target specificity.

[2] = tested on: SW620 [human colon adenocarcinoma (lymph node metastasis)]; assay: In vivo anti-tumor study, SW620 s.c. tumor; parameters: species or system mouse; details: po
Text: (§2) In Vivo Anti-Tumor Studies
(§3) Tumor cells (5×10^5 to 8×10^6 of M27 [mouse Lewis lung carcinoma], A431 [human epidermal carcinoma] or SW620 [human colon adenocarcinoma (lymph node metastasis)]) are innoculated subcutaneously into the flank of 5-6 week old athymic nu/nu female mice. For the C-f-1 [mouse fibroblast transformed with c-fos oncogene] tumor model, 2 mm^3 tumor fragments are transplanted subcutaneously into the flank of 5-6 week old athymic nu/nu female mice. Tumor bearing animals are selected and randomized when the tumors are established. Animals are treated with vehicle (beta cyclodextran for i.p. or corn oil for p.o.) only or compounds in vehicle twice a day (BID) for 5 (1-5) or 7 (1-7) days per week for 2 (×2) or 4 (×4) weeks. The percent inhibition of tumor growth relative to vehicle controls are determined by tumor measurements.

[3] = tested on: M27 [mouse Lewis lung carcinoma]; assay: In vivo anti-tumor study, M27 s.c. tumor; details: po
Text: as §2, §3

[4] = tested on: C-f-1 [mouse fibroblast transformed with c-fos oncogene]; assay: In vivo anti-tumor study, C-f-1 s.c. tumor; details: C-f-1 s.c. in athymic nu/nu mice, BID
Text: as §2, §3

[5] = tested on: T24-BAG4 human bladder carcinoma cells expressing an activated H-ras gene; assay: Cell Mat assay: inhibition of tumor cell growth; assay type: cell-based; details: Homo sapiens, tIC50
Experimental: as §1

[6] = tested on: disordered cell growth induced by transforming Ras-CVLS in COS monkey kidney cells; assay: Cell-based assay: disordered cell growth induced by transforming Ras in COS cells (microscopy)
Text: 2. Cell-Based Assay: Transient expression of val^12-Ha-Ras-CVLS and val^12-Ha-Ras-CVLL in COS monkey kidney cells: Effect of farnesyl protein transferase inhibitors on Ras processing and on disordered cell growth induced by transforming Ras.
COS monkey kidney cells were transfected by electroporation with the plasmid pSV-SPORT (Gibco/BRL) containing a cDNA insert encoding either Ras-CVLS or Ras-CVLL, leading to transient overexpression of a Ras substrate for either farnesyl protein transferase or geranylgeranyl protein transferase I, respectively (see above).
Following electroporation, cells were plated into 6-well tissue culture dishes containing 1.5 ml of Dulbecco's-modified Eagle's media (GIBCO, Inc.) supplemented with 10% fetal calf serum and the appropriate farnesyl protein transferase inhibitors. After 24 hours, media was removed and fresh media containing the appropriate drugs was re-added.
48 hours after electroporation cells were examined under the microscope to monitor disordered cell growth induced by transforming Ras. Cells expressing transforming Ras become more rounded and refractile and overgrow the monolayer, reminiscent of the transformed phenotype. […]

[7] = target: T1, farnesyl protein transferase (FPT) (Rattus norvegicus, UniProt Q02293+Q04631); assay: In vitro enzyme assay: inhibition of farnesyl protein transferase; assay type: biochemical; details: Ras-CVLS farnesylation, partially purified rat brain FPT; read-out: FPT IC50
T1 construct: were partially purified from rat brain by ammonium sulfate fractionation followed by Q-Sepharose; from tissue; host or cells: rat brain
Experimental: 1. In vitro enzyme assays: Inhibition of farnesyl protein transferase and geranylgeranyl protein transferase.
Human farnesyl protein transferase was also expressed in E. coli, using cDNA clones encoding both the α and β subunits. […] Two forms of val^12-Ha-Ras protein were prepared as substrates for these enzymes, differing in their carboxy terminal sequence. One form terminated in cysteine-valine-leucine-serine (Ras-CVLS) the other in cystein-valine-leucine-leucine (Ras-CVLL). Ras-CVLS is a substrate for the farnesyl protein transferase while Ras-CVLL is a substrate for geranylgeranyl protein transferase I. The cDNAs encoding these proteins were constructed so that the proteins contain an amino-terminal extension of 6 histidine residues. Both proteins were expressed in Escherichia coli and purified using metal chelate affinity chromatography. The radiolabelled isoprenyl pyrophosphate substrates, [^3H]farnesyl pyrophosphate and [^3H]geranylgeranyl pyrophosphate, were purchased from DuPont/New England Nuclear.
The reaction was allowed to proceed for 30 minutes at room temperature and then stopped with 0.5 ml of 4% sodium dodecyl sulfate (SDS) followed by 0.5 ml of cold 30% trichloracetic acid (TCA). Samples were allowed to sit on ice for 45 minutes and precipitated Ras protein was then collected on GF/C filter paper mats using a Brandel cell harvester. […] Percent inhibition was calculated relative to the DMSO vehicle control.

CCOC(=O)N1CCC(C2(F)c3ccc(Cl)cc3CCc3cccnc32)CC1 (centres unmarked) [Compound 530.00]
IC50 [1]: 100 µM | average % tumor inhibition ([2]; SW620, 100 MPK, 10/wk, ×4): 57% | % Inhibition (tumor growth relative to vehicle controls) ([2]; SW-620 s.c. in athymic nu/nu mice, BID, 1-5, × 4): 73% | average % tumor inhibition ([3]; M27, 100 MPK, 14/wk, ×4): 37% | % Inhibition (tumor growth relative to vehicle controls) ([3]; M27 s.c. in athymic nu/nu mice, BID, 1-7, × 4): 49% | % Inhibition (tumor growth relative to vehicle controls) ([4]; ip, 1-5, × 2): 17.8% | % Inhibition (tumor growth relative to vehicle controls) ([4]; po, 1-5, × 4): 69% | IC50 [5]: 12.5 µM | response to oncogenic Ras-CVLS (overgrowth of monolayer, dense foci) ([6]; at 6.6 μg/ml): inhibited | response to oncogenic Ras-CVLS (overgrowth of monolayer, dense foci) ([6]; at 20 μg/ml): inhibited | IC50 [7]: 3.7 µM
